From US10508111B2, “6-[5-amino-6-(2-ethoxyethoxy)-imidazo[4,5-B]pyridin-3-yl]-nicotinonitrile derivatives and their use as IRAK inhibitors” (GALAPAGOS NV, priority 2015, dated 2019) come the findings set out here.

In one assay the target is T1, c-SRC (Homo sapiens, UniProt P12931).
T1 construct: purchased Carna Biosciences 08-173
Nature of the assay: Kinase selectivity profiling (focused panel), radioactive filter plate assay: c-SRC. The following applies: PolyGT substrate, 0.25 μM ATP, 60 min. In kind it is biochemical. How it is done: The purpose of this assay is to determine the activity and selectivity of a compound of the invention on a selected range of human kinases which may result in undesirable side-effects when inhibited (Dy & Adjei 2013; Force & Kolaja 2011).
The IC50 value for off-target kinases is determined in radioactive filter plate assays. The principle of the assays consists in the measurement of incorporated ^33P into a peptide substrate upon phosphorylation by the kinase enzyme using [γ-^33P]ATP and ATP. Unincorporated ^33P is removed by loading the samples on a filter plate (using a harvester, PerkinElmer) and 6 subsequent washing steps. Incorporated ^33P in the peptide substrate is measured by a scintillation counter (Topcount, PerkinElmer) after addition of MicroScint™-20 (PerkinElmer, 6013621) to the filter plates.
5 μL of a water dilution series of test compound (starting from 20 μM or 6.6 μM highest concentration), from a 100% DMSO stock solution, 1/5 dilution, is added to the wells (final DMSO concentration of 1% in reaction assay). Enzyme and peptide substrate are used at optimized concentrations (cf. Table VI). The enzyme and substrate are diluted in assay buffer to a total volume of 11 μL. The reaction is started by addition of 9 μL of ATP+[γ-^33P]ATP, diluted in the same buffer as enzyme and substrate. The mixture is incubated at 30° C. The reaction is terminated by adding 25 μL of 150 mM phosphoric acid. Samples are transferred to filter plates and incorporated radioactivity is measured using a scintillation counter.
The incubation time, assay buffer composition, and concentrations of ATP, enzyme and substrate are reported in Table VI for example kinase off-target assays.
10 μM staurosporine (1% DMSO) is used as positive control (100% inhibition); vehicle (water+1% DMSO) as negative control (0% inhibition).

In assay [1] the test system is IL-1β triggered MMP13 release in SW1353 cells. Nature of the assay: SW1353 cellular selectivity assay, IL-1β trigger, MMP13 readout. In kind it is cell-based, human. The settings on record: IL-1β trigger 1 ng/mL; for IC50: Homo sapiens; for IL-1β trigger MMP13 PIN at 20 μM: percent inhibition at 20 μM compound. From the text: (§1) The aim of this assay is to evaluate the selectivity of compounds of the invention for the activated TLR/IRAK-4 pathway in an in vitro human cellular assay setting. SW1353 cells are from a chondrocytic cell line and are responsive to both the interleukin 1 (IL-1) and the TNFα cytokine triggers. Both cytokine triggers induce the expression of interleukin 6 (IL-6) and MMP13 by these cells. IL-6 and MMP13 releases are used as readouts in this assay and represent a measure for the level of inhibition of the TLR/IRAK-4 pathway by the tested compound.
(§2) SW1353 cells are cultured in DMEM supplemented with 10% FBS and 1% Penicillin/Streptomycin. Cells are incubated at 37° C. in a humidified atmosphere of 5% CO2 and subcultured twice a week. During subculturing, trypsin-EDTA is used to detach the cells, followed by a neutralization step with cell culture medium. After centrifugation (1,000 rpm during 5 min), the pellet is resuspended in cell culture medium and cells are counted using an automated cell counter (Invitrogen Countess™).
(§3) Cells are used at passage 16 and plated at a density of 15,000 cells per well in 120 μL cell culture medium in 96-well culture plates. Cells are allowed to attach during overnight incubation.
(§4) SW1353 cells are pre-incubated with test compound by addition of 15 μL of 10× concentrated compound solution for 2 h at 37° C. and 5% CO2. The compounds are tested at different concentrations and prepared by 3-fold serial dilutions from the 10 mM stock solution in DMSO followed by a 1/50 dilution step in cell culture medium. Final test concentrations in the assay start from 20 μM, with subsequent 3-fold serial dilutions with equal final DMSO concentrations of 0.2%. After the compound pre-incubation step, the SW1353 cells are triggered by addition of 15 μL of 10× concentrated IL-1f (Peprotech, 200-01B) or TNFα trigger (Peprotech, 300-01A) to the wells with final assay volume of 150 μL per well and final trigger concentration of 1 ng/mL and 10 ng/mL, respectively. Negative controls are adjusted with equal DMSO concentrations without trigger. The assay plates are then incubated in a humidified incubator at 37° C. and 5% CO2. Cell supernatants are harvested 24 h and 48 h later by transferring the cell medium into a V-bottom polypropylene 96-well plate and stored at −80° C. until ELISA readout.
(§5) The levels of secreted MMP13 in the cell supernatants are quantified in an antibody capture activity assay. […] After incubation for 1 h at 37° C., fluorescence of the converted substrate is measured with a PerkinElmer EnVision® (excitation wavelength: 320 nm, emission wavelength: 405 nm).
(§6) All controls are measured within the linear range of the human IL-6 and MMP13 standard curve of the ELISA. […]

Assay [2] concerns TNFα triggered MMP13 release in SW1353 cells. Description: SW1353 cellular selectivity assay, TNFα trigger, MMP13 readout. In kind it is cell-based, human. The following applies: TNFα trigger 10 ng/mL; for IC50: Homo sapiens; for TNFα trigger MMP13 PIN at 20 μM: percent inhibition at 20 μM compound.
From the text: as §1, §2, §3, §4, §5, §6

T1 sequence (P12931 whole entry): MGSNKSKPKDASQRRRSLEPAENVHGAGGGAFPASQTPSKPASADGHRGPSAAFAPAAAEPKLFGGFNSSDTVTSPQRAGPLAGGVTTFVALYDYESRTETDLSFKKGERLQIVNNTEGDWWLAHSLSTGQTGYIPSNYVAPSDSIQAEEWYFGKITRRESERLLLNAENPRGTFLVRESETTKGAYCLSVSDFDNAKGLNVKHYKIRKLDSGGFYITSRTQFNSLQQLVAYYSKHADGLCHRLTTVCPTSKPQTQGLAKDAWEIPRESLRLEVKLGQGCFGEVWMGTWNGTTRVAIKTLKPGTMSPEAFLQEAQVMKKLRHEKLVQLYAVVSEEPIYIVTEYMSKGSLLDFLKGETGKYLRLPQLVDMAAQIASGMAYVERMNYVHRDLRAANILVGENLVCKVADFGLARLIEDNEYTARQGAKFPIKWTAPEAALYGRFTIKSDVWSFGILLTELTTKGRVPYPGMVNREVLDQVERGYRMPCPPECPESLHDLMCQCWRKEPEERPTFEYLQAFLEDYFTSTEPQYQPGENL

The term IC50 denotes the point on the concentration scale where inhibition reaches its midpoint. As to `N#Cc1ccc(-n2cnc3cc(OCCOCCO)c(NC4CCOCC4)nc32)nc1` [Compound 1, 6-[6-[2-(2-hydroxy-ethoxy)-ethoxy]-5-(tetrahydro-pyran-4-ylamino)-imidazo[4,5-b]pyridin-3-yl]-nicotinonitrile], the IC50 on c-SRC was more than 1330 nM; in assay [1] it was 36 nM; in assay [2], more than 20000 nM. Besides, the “IL-1β trigger MMP13 PIN at 20 μM” value in assay [1] is “[81%]”. The “TNFα trigger MMP13 PIN at 20 μM” value in assay [2] is “[26%]”.

With `C[C@]1(O)CC[C@@H](Nc2nc3c(cc2OCCOCCO)ncn3-c2ccc(C#N)cn2)CC1` [Compound 12, 6-[6-[2-(2-hydroxyethoxy)ethoxy]-5-[((cis-1,4)-4-hydroxy-4-methylcyclohexyl)amino]imidazo[4,5-b]pyridin-3-yl]pyridine-3-carbonitrile], the IC50 was 477 nM at c-SRC, 29 nM in assay [1] and more than 20000 nM in assay [2]. Also, in assay [1], the “IL-1β trigger MMP13 PIN at 20 μM” value was “[75%]”. Moreover, the “TNFα trigger MMP13 PIN at 20 μM” value in assay [2] was “[36%]”.
